Laboratory results reported in US20260294863A1, “METHOD OF TREATING FIBROTIC-RELATED CONDITION” (YISSUM RESEARCH DEVELOPMENT COMPANY OF THE HEBREW …, priority 2023, published 2026).
“Also recorded” adds a separate entry of the source.

Columns and labels:
IL6 = test: Secretion of IL6 from BzATP/LPS-activated microglia (ELISA); type: cell-based, Balb/C mice
Description: Experiments were performed on primary microglial cells isolated from brains of neonatal Balb/C mice as previously described (Reichert and Rotshenker, 2003). The brains were stripped of their meninges and enzymatically dissociated. Cells were plated on Poly-L-lysine coated flasks for one week, re-plated for 1- to 2-hr on bacteriological plates and non-adherent cells were washed away. Microglia were propagated by incubation in 20% of medium, conditioned by the L-cell line that produces mouse-CSF. They were identified by morphology and positive immune-reactivity to P2y12, F4/80, complement receptor-3 and Galectin-3/MAC-2 (Reichert and Rotshenker 2003; Gitik et al. 2011).
Cytokines were measured as previously described (Shamash et al. 2002) using ELISA Max deluxe set (Biolegend, CA, USA) for secreted TNFα and IL-6 proteins and ELISA DuoSet (R&D systems, UK) for secreted and cell associated IL-1β, according to manufacturer's instructions.
The effect of ladostigil at concentrations of 1×10^−13 M to 1×10^−9 M on the secretion of cytokine proteins was assessed by adding it to microglia for 2 hr before LPS (0.75 μg/ml) and BzATP (400 μM). Other microglia were treated similarly with the steroid, budesonide as a reference standard at concentrations of 1× 10^−13 to 1× 10^−11 M. Measurements of cytokine secretion were performed 8 hrs after addition of LPS and BzATP. Since the levels of secreted IL-1β were still low, samples were concentrated 2- to 4-fold by an Amicon ultra-centrifugal filter device (Merck-Millipore, Ireland). ELISA was used to quantify the levels of cytokine proteins. Protein content in the microglia lysate was measured by Bradford and levels of cytokines were calculated and presented as pg/μg of microglial protein.

[1] = Mortality in bleomycin-induced lung fibrosis; type: in vivo, C57BL/6JOlaHsd mice
Description: The animal model of bleomycin-induced lung fibrosis is widely used to characterize the potential inhibitory effect of newly developed drugs (Distler et al. 2019). Experiments were performed in C57BL/6JOlaHsd male and female mice aged 12-13 weeks. Male mice weighed 23-27.3 g and female mice, 19.4-21.1 g. They were housed under pathogen-free conditions, up to 6 per cage, in IVC cages under a controlled temperature of 22-24° C., humidity and alternating 12-h light/dark cycles and provided with food and water ad libitum. […] Saline (2-3/sex) and bleomycin controls were anesthetized as described above. Bleomycin solution (0.25 mg/kg in 50 μl) was instilled into the lumen of the trachea as shown in a video by Ehrentraut et al. (2019). […] Mice were weighed daily and sacrificed on day 21. Bronchial fluid was collected as described in Ehrentraut et al. (2019). TNFα and IL-6 in the bronchial fluid lavage was measured by ELISA as described in the preceding section.

[2] = tested on: bleomycin-induced lung fibrosis; test: Lung fibrosis score / collagen content in bleomycin-induced lung fibrosis; type: in vivo, C57BL/6JOlaHsd mice
Description: The animal model of bleomycin-induced lung fibrosis is widely used to characterize the potential inhibitory effect of newly developed drugs (Distler et al. 2019). Experiments were performed in C57BL/6JOlaHsd male and female mice aged 12-13 weeks. Male mice weighed 23-27.3 g and female mice, 19.4-21.1 g. They were housed under pathogen-free conditions, up to 6 per cage, in IVC cages under a controlled temperature of 22-24° C., humidity and alternating 12-h light/dark cycles and provided with food and water ad libitum. In order to minimize the stress of daily injection, ladostigil (5 mg/Kg/day) was administered by micro-osmotic pumps, implanted subcutaneously under ketamine/xylazine anesthesia, 5 days before administration of bleomycin, and delivered for 3 weeks to mice of each sex. Saline (2-3/sex) and bleomycin controls were anesthetized as described above. Bleomycin solution (0.25 mg/kg in 50 μl) was instilled into the lumen of the trachea as shown in a video by Ehrentraut et al. (2019). […] Mice were weighed daily and sacrificed on day 21. Bronchial fluid was collected as described in Ehrentraut et al. (2019). TNFα and IL-6 in the bronchial fluid lavage was measured by ELISA as described in the preceding section.
Specimens taken from the left lung were embedded in paraffin and cut into 5 μm-thick slices. They were put on slides and paraffin was removed. They were rehydrated and stained with a solution of Sirius red (100 mg/100 ml of [COMPOUND LEFT OUT], rinsed in distilled water until clear, dehydrated and mounted in a resinous medium. The red stain (also called “Sirius red” stain) is one of the best understood histochemical techniques. It relies on the birefringent properties of collagen and is much more specific than the other common collagen stains, Pulmonary fibrosis was evaluated on a score of 0-4 on 15-20 different fields taken from each lung section, according to the area and intensity of fibrotic staining in the field, excluding that in blood vessels. Two independent scientists blinded to the treatment performed the analysis. For TGFβ1 staining, slides were deparaffinized and rehydrated. Antigen retrieval was performed in Tris-based buffer, pH 9.0. Endogenous peroxidase activity was quenched by incubation in 3% H2O2. The tissue was permeabilized with Triton X-100 0.1% in PBS. After blocking, sections were incubated with primary antibody: diluted rabbit recombinant monoclonal TGFβ1 antibody (Abcam ab215715) over night, at 4° C. Slices were further incubated with the secondary antibody: ImmPRESS®-HRP Goat Anti-Rabbit IgG Polymer Detection Kit, Peroxidase (Vector labs VE-MP-7451-15) at room temperature. For color development, sections were incubated in peroxidase substrate solution DAB, at room temperature until desired stain intensity developed. They were then counterstained with filtered hematoxylin and cosin, cleared and mounted.
Experiments were performed in C57BL/6JOlaHsd male mice aged 12-13 weeks as described for ladostigil. AN1284 (2.5 mg/kg/day) was administered by micro-osmotic pumps, implanted subcutaneously under ketamine/xylazine anesthesia, 5 days before administration of bleomycin and delivered for 3 weeks. Mice were weighed daily, sacrificed on day 21 and bronchial fluid was collected. Fibrosis was measured by staining with Sirius red as described for ladostigil. TNFα and IL-6 in the bronchial fluid lavage was measured by ELISA as described for ladostigil.

IL-6 = IL-6 in bronchial fluid, bleomycin-induced lung fibrosis (ELISA); type: in vivo, C57BL/6JOlaHsd mice; settings: ladostigil, bleomycin-induced lung fibrosis
Description: The animal model of bleomycin-induced lung fibrosis is widely used to characterize the potential inhibitory effect of newly developed drugs (Distler et al. 2019). Experiments were performed in C57BL/6JOlaHsd male and female mice aged 12-13 weeks. Male mice weighed 23-27.3 g and female mice, 19.4-21.1 g. They were housed under pathogen-free conditions, up to 6 per cage, in IVC cages under a controlled temperature of 22-24° C., humidity and alternating 12-h light/dark cycles and provided with food and water ad libitum. In order to minimize the stress of daily injection, ladostigil (5 mg/Kg/day) was administered by micro-osmotic pumps, implanted subcutaneously under ketamine/xylazine anesthesia, 5 days before administration of bleomycin, and delivered for 3 weeks to mice of each sex. Saline (2-3/sex) and bleomycin controls were anesthetized as described above. Bleomycin solution (0.25 mg/kg in 50 μl) was instilled into the lumen of the trachea as shown in a video by Ehrentraut et al. (2019). […] TNFα and IL-6 in the bronchial fluid lavage was measured by ELISA as described in the preceding section.
Experiments were performed in C57BL/6JOlaHsd male mice aged 12-13 weeks as described for ladostigil. […] Fibrosis was measured by staining with Sirius red as described for ladostigil. TNFα and IL-6 in the bronchial fluid lavage was measured by ELISA as described for ladostigil.

TGFβ = test: Cells containing TGFβ in the lung, bleomycin-induced lung fibrosis; type: in vivo, C57BL/6JOlaHsd mice; settings: ladostigil + bleomycin; p<0.05
Description: The animal model of bleomycin-induced lung fibrosis is widely used to characterize the potential inhibitory effect of newly developed drugs (Distler et al. 2019). Experiments were performed in C57BL/6JOlaHsd male and female mice aged 12-13 weeks. Male mice weighed 23-27.3 g and female mice, 19.4-21.1 g. They were housed under pathogen-free conditions, up to 6 per cage, in IVC cages under a controlled temperature of 22-24° C., humidity and alternating 12-h light/dark cycles and provided with food and water ad libitum. […] TNFα and IL-6 in the bronchial fluid lavage was measured by ELISA as described in the preceding section.
Specimens taken from the left lung were embedded in paraffin and cut into 5 μm-thick slices. […] They were rehydrated and stained with a solution of Sirius red (100 mg/100 ml of [COMPOUND LEFT OUT], rinsed in distilled water until clear, dehydrated and mounted in a resinous medium. The red stain (also called “Sirius red” stain) is one of the best understood histochemical techniques. It relies on the birefringent properties of collagen and is much more specific than the other common collagen stains, Pulmonary fibrosis was evaluated on a score of 0-4 on 15-20 different fields taken from each lung section, according to the area and intensity of fibrotic staining in the field, excluding that in blood vessels. […]

NFκB = settings: LPS; cited from earlier work

C#CCN[C@@H]1CCc2ccc(OC(=O)N(C)CC)cc21 [Ladostigil, 6-(N-ethyl, N-methylcarbamyloxy)-N propargyl-1 (R)-aminoindan hemitartrate]
Emax (IL6; Mus musculus, Microglia, 8 h, 1×10^−11-1×10^−9 M, read-out: maximal reduction of IL6): ~50% | minimal effective concentration (IL6; Mus musculus, microglia, BzATP/LPS, medium containing BSA, 8 hrs, read-out: lowest concentration that significantly decreased IL6 secretion): 1e-07 µM | reduction of IL6 release (IL6; all concentrations tested, added 2 hrs before BzATP and LPS, 0.1% BSA, p<0.01): reduced the 3 cytokines significantly | reduction of IL6 compared with reduction of TNF (IL6; all concentrations tested, p<0.001): greater than those of TNF | mortality ([1]; females, ladostigil+bleomycin, 2.5 mg/kg (2/10)): 20% | mortality ([1]; females, ladostigil+bleomycin, 5 mg/kg (1/20)): 5% | mortality (animals died/total) ([1]; females, ladostigil+bleomycin, dose not given): 1/11 | mortality ([1]; males, bleomycin+ladostigil 5 mg/kg, day 17 (2/9)): 22% | mortality ([1]; males, ladostigil 10 mg/kg, day 17 (1/11)): 9% | fibrosis (overall conclusion) ([2]; bleomycin-induced lung fibrosis murine model): shown to reduce fibrosis | collagen deposition (hydroxyproline) ([2]; both sexes, 5 mg/Kg/day): reduced collagen deposition | fibrosis (score) ([2]; females, 2.5 and 5 mg/Kg/day): significantly reduced fibrosis | fibrosis (score) ([2]; males, 5 and 10 mg/kg/day): significantly reduced fibrosis | anti-inflammatory effect in bleomycin-induced lung fibrosis model ([2]; mouse, in vivo): does not have an anti-inflammatory effect | IL-6 in bronchial fluid (IL-6): generally not affected; also recorded: did not reduce | number of cells containing TGFβ in the lung (TGFβ): significantly reduced the number of cells containing TGFβ | nuclear translocation of NFκB (NFκB): decrease in the nuclear translocation of NFκB
